Some results are limits rather than exact numbers.

On to `COCCC1(c2ccc(O)cc2)N=CC=N1`, for which the melting point lay within 173 to 176 °C. For `CC(=O)OC1CSC(Oc2ccc(C(C)=O)nc2)C(OC(C)=O)C1OC(C)=O` (configuration not stated) the value was 149 °C; for `Cc1ccc(OC2=C(Oc3ccc([N+](=O)[O-])cc3)C(F)(F)C(F)(F)C2(F)F)cc1`, 72 to 76 °C. In the case of `Cc1cccc(-c2nn3c(c2-c2ccc(F)cc2)CC[C@H]3CO)n1` it was 142 to 144 °C; in that of `O=C1OC[C@@H](CO)N1c1nc(-c2ccc(Br)cc2)cs1`, 189 to 192 °C; in that of `O=c1[nH]c2scc(Br)c2[nH]c1=O`, 295 to 296 °C. For `O=C1N=C(N2CCOCC2)SC1=Cc1cc(-c2ccc(O)c(C34CC5CC(CC(C5)C3)C4)c2)c(O)cc1O` the value was 306 to 310 °C; for `CNc1cc2c(cc1[N+](=O)[O-])OCO2`, 170 °C; for `COc1cc(-c2ccc(C#N)cc2)cc(-c2nc3cc(C#N)ccc3[nH]2)c1O`, 334 to 335 °C. For the molecule `CCCOc1ccc(NC2=C(C(=O)OCC)CCC2)cc1C1=NC(=O)C2=NN=NC2=N1`, the melting point fell in the range of 164 to 165 °C. Regarding `CC(C)(C)OC(=O)N1CCC[C@H]1C(=O)O[C@H]1CO[C@H]2[C@H]1OC[C@H]2O[N+](=O)[O-]`, the melting point fell in the range of 109 to 111 °C. For `CCCC1CCc2c(c(F)c(F)c3oc(C)cc23)O1` (configuration not stated) the value was 75 °C; for `CCOC(=O)COc1ccccc1C(=O)Nc1ccc(O)cc1`, 208 to 210 °C. In the case of `O=C(CCCCCNC(=O)OCc1ccccc1)NCCc1ccc(O)cc1` it was 108 °C. For `Cc1nc(N)ccc1Cl` the value was 74 to 75 °C. Molecule `CCCSC1NC(c2ccc(Cl)cc2)=NN(CC(F)(F)F)C1=O` (configuration not stated) displayed a melting point of 99 to 100 °C.

With `OCCOCCN1CCN(C2=Nc3ccccc3Sc3ccccc32)CC1`, the melting point was in the range of 172 to 173 °C. For `CN(C(=O)c1ccc2nonc2c1)C1CCS(=O)(=O)CC1` the value was 238 to 239 °C; for `O=C1Nc2ccccc2N2CCN(CCc3ccccn3)CC12` (configuration not stated), 167 to 169 °C; for `COc1cccc(-c2csc(-c3cccc([N+](=O)[O-])c3)n2)c1`, 122 to 123 °C.

Take `COC(=O)c1cc(N2C(=O)CCC2=O)c(Cl)c(S(N)(=O)=O)c1`: the melting point is 195 to 196 °C. For `CC(C)(C)C(NC(=O)c1ccc(Cl)cc1)NC(=C[N+](=O)[O-])Nc1cccnc1` (configuration not stated) the value was 195 to 196 °C. In the case of `CCCCCc1scc2c1n(C(=O)OC)c(=O)n2C(=O)OC` it was 99 to 102 °C. In the case of `Cn1c(=O)c(Oc2ccccc2F)cc2cnc(S(C)(=O)=O)nc21`, the melting point lay in the range of 158 to 162 °C. For `CC(C)(C)C(=O)C(Br)C(c1ccc(Cl)cc1Cl)S(=O)(=O)c1ccc(Cl)cc1` (configuration not stated) the value was 184 to 185 °C. In the case of `Cc1ncc(CO)c2c1OC(C(F)(F)F)C(C(=O)O)=C2` (configuration not stated) it was 76.1 to 80.1 °C; in that of `COc1cc(OC)c(C2=NC(C)(C)CO2)cc1OC`, 84 to 86 °C; in that of `O=C(c1ccc(F)cc1)c1ccc(SCc2ccccc2)cc1`, 96 °C. In the case of `COc1c(Cl)ccc(-c2cc(N)c(Cl)c(C(=O)NOCc3cncs3)n2)c1F` it was 179 to 181 °C. On to `O=c1oc(-c2cc(C(F)(F)F)cc(C(F)(F)F)c2)cc(O)c1SCc1ccccc1`, for which the melting point was in the range of 80 to 82 °C.

`CC(C(O)C(C)(C)Cc1ccc(Cl)c(OC(F)(F)F)c1)n1cncn1` (configuration not stated) registered a melting point of 109 to 110 °C. For `O=C1NC(=O)C(Nc2ccc(Br)c3ccccc23)S1` (configuration not stated) the value was 199 to 200 °C. For `CCCCCCCCCCCCCCCCCCOc1cccc2c(O)cccc12` the value was 90 to 92 °C; for `CC(C)(C)C(=O)Nc1ccc2oc3c(c2c1)CCCCC3`, 208 to 209 °C. In the case of `COc1ccc(C2=NN(Cc3cccc(C(=O)NC4CCCC4)c3)C(=O)CC2)cc1OC` it was 179 °C. Consider `CCN(C(=O)c1ccccc1)C(=NC(=O)c1ccccc1)NCc1ccc(S(N)(=O)=O)cc1`, for which the melting point is 70 to 80 °C. In the case of `CC(C)(Oc1ccc(C(=O)NCc2ccc(Cl)cc2)cc1)C(=O)O` it was 180 °C. For `CC(=O)c1ccc(C(=O)N(C)C)o1` the value was 101 to 104 °C; for `CC(C)(NC(=O)C(O)C(N)Cc1ccc(S(C)(=O)=O)cc1)C(=O)O` (configuration not stated), 220 to 222 °C; for `N#Cc1nn(-c2c(Cl)cc(C(F)(F)F)cc2Cl)c(I)c1SC(F)(F)F`, 187 to 188 °C.

In turn, `O=C(O)Cc1ccc(OCCNC(=O)C2Cc3ccccc3N2S(=O)(=O)c2ccc(-c3cccc(C(F)(F)F)c3)c(F)c2)cc1` (configuration not stated) returned a melting point of 82 °C. For `CCC=Cc1nc2ccccc2n1Cc1ccc(C(=O)O)cc1` the value was 210 °C; for `Cc1ccc(C(=O)c2cccc(S(=O)(=O)O)n2)cc1`, > 300 °C; for `COC(=O)[C@H](Cc1cc(I)c(OCCCBr)c(I)c1)NC(=O)OC(C)(C)C`, 102 to 103 °C. For `CCCCCCCOc1cc2c(cc1C(C)=O)C(C)(C)CCS2` the value was 69 to 71 °C; for `Cn1c(=O)sc2cc(C(=O)CSCCC(=O)O)c(Cl)cc21`, 120 to 121 °C. For `O=C(Nc1nc2ccc(C(F)(F)F)cc2s1)c1c(F)cccc1F` the value was 256 to 257 °C; for `O=C(NNC(=O)c1ccc([N+](=O)[O-])cc1)c1ccc([N+](=O)[O-])cc1`, 294 °C; for `CS(=O)(=O)c1ccc(/C(=C(/CO)CCO)c2ccc(Cl)cc2)cc1`, 159 to 160 °C.

`CC(=O)C(C)OC(=O)CC[C@H]1NC(=O)[C@@H]1N1C(=O)c2ccccc2C1=O` (some centres not stated): the melting point is 135 to 145 °C. In the case of `CCCc1cn(CC(=O)O)nc1OCCCc1cn(-c2ccc(C(F)(F)F)cn2)nc1CCC` it was 138 to 139 °C. For `O=C(N1CCC2(C=Cc3ccccc32)CC1)N1CCCc2ccccc21` the value was 130 to 133 °C; for `CC(C)Nc1cccnc1N1CCN(C(=O)c2ccc(C(=O)N3CCOCC3)cc2)CC1`, 139 °C; for `CCOC(=O)Cc1cccc(NC=O)n1`, 35 to 38 °C.

With `O=C(O)c1cnc2c(F)c(F)ccc2c1`, the melting point stood at 275 °C. For `O=C(NCc1ccc(Cl)cc1)c1cnc2ccc(I)cc2c1O` the value was 297 to 299 °C; for `CC(C)c1nc(C(C)C)c(C(C)O)c(-c2ccc(F)cc2)c1-c1ccccc1` (configuration not stated), 155 to 157 °C; for `c1coc(CN2CC3(COc4cc5c(cc43)OCO5)c3ccccc32)c1` (configuration not stated), 110 to 112 °C.

Molecule `O=C1C(=O)c2ccccc2C2=C1SCC1(CCN(CC(O)Cc3ccccc3)CC1)O2` (configuration not stated) returned a melting point of 82 to 84 °C. For `c1ccc(C(N=C2CCCCC2)c2ccccc2)cc1` the value was 71 to 72 °C.

In the case of `CCc1cccc(C)c1C(=O)N[C@@H](Cc1ccc(-c2c(C)n(C)c(=O)n(C)c2=O)cc1)C(=O)O`, the melting point fell in the range of 127 to 133 °C.

As for `CCOCC(=O)N1Cc2cc(Cl)ccc2CC(C)C1=O` (configuration not stated), the melting point lay within 123 to 124 °C.

Regarding `NS(=O)(=O)N(c1ccccc1)c1cccc(C(c2c(O)c3c(oc2=O)CCCCCC3)C2CC2)c1` (configuration not stated), the melting point fell in the range of 90 to 95 °C.

Molecule `CC(CC(=O)c1ccccc1)C(=O)N[C@@H](CS)C(=O)O` (some centres not stated) displayed a melting point of 78 to 105 °C. Take `CC[Si](C#CC1(COCc2ccccc2)OC(n2ccc(=O)[nH]c2=O)C(O)C1OCc1ccccc1)(CC)CC` (configuration not stated): the melting point is 119 to 120 °C. In the case of `COC(=O)c1cc(I)ccc1NC=C1C(=O)OC(C)(C)OC1=O` it was 206 to 208 °C; in that of `CCOc1nc2cccc(C(=O)OC(C)OC(=O)OC3CCCCC3)c2n1Cc1ccc(-c2ccccc2-c2nc(=O)o[nH]2)cc1` (configuration not stated), 108 to 109 °C; in that of `CCOC(=O)C1CC(O)CN1C(=O)c1ccc(OC)cc1` (configuration not stated), 64 °C. `COC(=O)Cc1sc(S)nc1C`: the melting point was 139 to 140 °C.

Consider `CCCCCCCCCCCCCCCCCCOc1cc(OCCCOc2ccc(OCc3ccccc3)cc2)cc(C(=O)OC)c1`, for which the melting point was 76 to 77 °C. As for `CC(=O)SC1CC(=O)N1C(C(=O)OCc1ccc([N+](=O)[O-])cc1)=P(c1ccccc1)(c1ccccc1)c1ccccc1` (configuration not stated), the melting point was in the range of 154 to 155 °C. On to `CCn1cc(C(=O)O)c(=O)c2c(C)c(F)c(F)cc21`, for which the melting point is > 300 °C. For `Cc1nn(-c2ccccn2)cc1COc1ccc(CCC(=O)O)cc1` the value was 129 to 130 °C; for `O=C1c2c(Cl)cccc2OCN1CCO[N+](=O)[O-]`, 98 to 100 °C. Molecule `COCCCNC(=O)c1cc(C(=O)OC)c(O)c2ncc(Cc3ccc(F)cc3)cc12` displayed a melting point of 166 to 167 °C. For `CN(C)Cc1nc(C=O)nn1-c1ccc(Cl)cc1C(=O)c1ccccc1` the value was 178 to 181 °C; for `C#CCN(Cc1ccc2nc(C)[nH]c(=O)c2c1)c1ccc(C(=O)NCC2CCNCC2)cc1`, 130 to 133 °C; for `CC(=O)OC1(C(C)=O)CCC2C3C=C(Cl)C4=CC(=O)OC(O)C4(C)C3CCC21C` (configuration not stated), 276 to 278 °C. Turning to `COC(=O)c1ccnc2ccc(C(=O)c3ccc(Cl)cc3)cc12`, the melting point was determined as 126 °C. In the case of `CN(Cc1cccc2c1C(=O)N(C1CCC(=O)NC1=O)C2=O)C(=O)Nc1ccccc1` (configuration not stated) it was 226 to 228 °C. Consider `CN(C)CCn1c2c(c3ccccc31)CCSCCC2`, for which the melting point is 62 to 64 °C. In the case of `CS(=O)(=O)c1ccc(-c2c(-c3ccccc3)sc3ccccc23)cc1` it was 173 to 174 °C; in that of `Cc1cc(C(=O)NCO)ncc1C(c1c(F)ccc(F)c1F)S(=O)(=O)c1ccc(Cl)cc1` (configuration not stated), 177 to 178 °C. In the case of `CN(C)C1(c2ccccc2)CCC(CNC(=O)N2CC=C(c3c[nH]c4ccccc34)CC2)CC1` (configuration not stated) it was 112 to 115 °C; in that of `CCn1nc(-c2ccccc2)c(C(C)=O)c(Nc2ccc(O)c3ncccc23)c1=O`, 262 to 263 °C; in that of `COc1ccc2c(c1)CN(c1ccc3sccc3c1)C2=O`, 183 to 186 °C.

Take `CC(=Cc1ccccc1)n1c(=O)[nH]c2ccc(F)cc21`: the melting point was determined as 190 °C.

As usually defined, the melting point is the temperature of the solid-liquid transition.

The values are drawn from a melting point compilation (Tetko et al.; mined from patent text by program, amines drawn as free bases though some values may be those of a salt).
